Data taken from patent publication US20230146782A1, “DEOXYCHOLIC ACID COMPOUNDS, PHARMACEUTICAL COMPOSITIONS AND USES THEREOF” (priority 2019, published 2023).
Several values for one entry are separate records, joined by “and”; a condition that tells them apart may be missing. Identical values can stand only once. Like-named read-outs stand apart in the source and are kept apart here. Values belong to the molecule of their own block, whether it stands above or below them.

Tests used:
[1] = rat
Protocol: (§1) Formulation of preparation and dosing: An appropriate amount of the test sample was precisely weighed, and mixed with an appropriate volume of a solvent to obtain a clear solution or a homogeneous suspension. The preparation was administered to animals within 4 hours after formulation. The dosage formulation would be administered by oral gavage in accordance with facility standard operating procedures. The dosage volume would be determined by the body weights of the animals collected on the morning of administering.
(§2) Blood collection: Blood (approx. 0.2 ml per point in time) would be acupunctured each time from the jugular vein of every animal into a polypropylene tube. All blood samples would be transferred to pre-cooled commercial EDTA-K2 test tubes, and kept on wet ice until they were centrifuged.
(§3) Plasma processing: Blood samples would be centrifuged (3200 rpm, 10 min) at approximately 4° C. Plasma was collected separately and transferred to pre-labeled PP tubes in wet ice at each point in time, and then immediately precipitated by ACN (6 IS) (the ratio of plasma: ACN was 1:4). Centrifugation (10 min, 12,000 rpm) was carried out again to obtain a supernatant. The supernatant was quickly frozen on dry ice and kept at −70±10° C. before LC/MS/MS analysis.
(§4) Liver processing: Liver tissues were collected at each point in time, washed twice with pre-cooled deionized water, and dried with filter paper. Liver tissues were immediately homogenized with 10-times volume of a methanol-water solution (1:2, v/v). After homogenization, a portion of liver tissue homogenate (e.g., 200 uL of homogenate) was immediately measured and delivered to an analyst. After precipitated on wet ice, the samples were centrifuged, and a supernatant was collected and stored in a refrigerator at −70±10° C. before LC-MS/MS analysis. From the remaining liver homogenate, 800 uL of the homogenate was measured as a spare.

[2] = target: T1, farnesoid X receptor (FXR) (Homo sapiens, UniProt Q96RI1); conditions: reference literature: sandwich-cultured human hepatocytes; cited from earlier work
T1 sequence (Q96RI1 1-486): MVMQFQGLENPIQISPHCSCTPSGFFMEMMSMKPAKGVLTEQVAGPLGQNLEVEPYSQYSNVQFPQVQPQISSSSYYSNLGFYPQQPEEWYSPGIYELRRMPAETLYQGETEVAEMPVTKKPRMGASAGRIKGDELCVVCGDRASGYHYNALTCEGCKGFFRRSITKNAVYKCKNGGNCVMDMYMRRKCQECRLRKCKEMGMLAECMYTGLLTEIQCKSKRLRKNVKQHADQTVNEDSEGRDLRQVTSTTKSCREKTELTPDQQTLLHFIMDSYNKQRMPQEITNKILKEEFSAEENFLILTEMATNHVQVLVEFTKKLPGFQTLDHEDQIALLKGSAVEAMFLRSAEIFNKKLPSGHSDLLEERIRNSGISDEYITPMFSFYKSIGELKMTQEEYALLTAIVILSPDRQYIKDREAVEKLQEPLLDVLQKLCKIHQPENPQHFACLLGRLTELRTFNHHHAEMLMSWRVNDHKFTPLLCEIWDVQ

in vivo = conditions: rat, po
Protocol: as §1, §2, §3, §4

[3] = Pharmacokinetic test: gavage to rats, active metabolites in plasma and liver by LC-MS/MS; conditions: for half-life: T1/2, rats; for half-life / Tlast: gavage of obeticholic acid
Protocol: as §1, §2, §3, §4

[4] = clinical treatment of liver diseases such as fatty liver; cited from earlier work
[5] = rat, plasma, po, 0.0576 mmol/kg

SMILES: CC[C@@H]1C2C[C@H](O)CC[C@]2(C)[C@H]2CC[C@]3(C)[C@@H]([C@H](C)CCC(=O)NCC(=O)OC(C)C)CC[C@H]3[C@@H]2[C@@H]1O (some centres unmarked) [Compound I-4]
- In vivo active compounds in the rats after administration [1]: Compound 4
- Total effective drug amount in the liver, compared with OCA ([1]; in vivo): significantly increased

SMILES: CC[C@H]1[C@@H](O)[C@@H]2[C@H](CC[C@]3(C)[C@@H]([C@H](C)CCC(=O)NCC(=O)O)CC[C@@H]23)[C@@]2(C)CC[C@@H](O)C[C@@H]12 [Compound 4]
- Effect on activation of the farnesoid X receptor (FXR) activity, compared with obeticholic acid [2]: almost the same as the effect of the obeticholic acid
- Kp (in vivo): 14.7
- AUC(0-inf) (in vivo; 0.0576 mmol/kg): 7460 ng·h/mL
- AUC(0-t) (in vivo; 0.0576 mmol/kg): 7310 ng·h/mL
- Cmax (in vivo; 0.0576 mmol/kg): 788 ng/mL and 16800 ng/g
- Tmax (in vivo; 0.0576 mmol/kg): 4 h
- MRT inf (in vivo; 0.0576 mmol/kg, MRT0-inf): 6.1 h
- MRT last (in vivo; 0.0576 mmol/kg, MRT0-last): 5.56 h
- half-life (in vivo; 0.0576 mmol/kg, T1/2): 287 min
- In vivo active compounds in the rats after administration [1]: Compound 4
- Tlast ([1]; in vivo): 24.0 h
- AUC0-last ([1]; in vivo, po): 107187 ng·h/g
- AUC ratio of the obeticholic acid-glycine conjugate 4 in liver/plasma ([1]; in vivo, po): 14.7
- AUC(0-inf) ([1]; in vivo, po): 110040 ng·h/g
- Total AUC in plasma and liver ([1]; in vivo, po): 117503
- Total AUC of the Compound 4 in the liver and plasma ([1]; in vivo, po): 117503
- AUC Ratio (liver/plasma) ([1]; in vivo, po, 0.0576 mmol/kg): 42.3

- Kp ([3]; rat, liver and plasma (AUC ratio), po, 0.0576 mmol/kg): 0.663
- Cmax ([3]; rat, liver, po, 0.0576 mmol/kg): 17900 ng/g
- Tmax ([3]; rat, liver, po, 0.0576 mmol/kg): 30 min
- half-life ([3]; rat, liver, po, 0.0576 mmol/kg, OCA in liver): 200 min
- AUC(0-inf) [3, 5]: 50300 ng·h/mL
- AUC(0-t) [3, 5]: 48100 ng·h/mL
- Cmax [3, 5]: 24300 ng/mL
- Tmax [3, 5]: 30 min
- half-life ([3]; rat, plasma, po, 0.0576 mmol/kg, OCA in plasma): 261 min
- Tlast ([3]; rats, 0.0576 mmol/kg, OCA in liver): 24.0 h
- Tlast ([3]; rats, 0.0576 mmol/kg, OCA in plasma): 24.0 h
SMILES: CC[C@H]1[C@@H](O)[C@@H]2[C@H](CC[C@]3(C)[C@@H]([C@H](C)CCC(=O)O)CC[C@@H]23)[C@@]2(C)CC[C@@H](O)C[C@@H]12 [OCA, 6-α-ethylchenodeoxycholic acid]
- Incidence of pruritus [4]: 63%
- Incidence of rash [4]: up to 32%

SMILES: CCOC(=O)[C@@H](N)Cc1ccc(OC(=O)CNC(=O)CC[C@@H](C)[C@H]2CC[C@H]3[C@@H]4[C@H](O)[C@H](CC)C5C[C@H](O)CC[C@]5(C)[C@H]4CC[C@]23C)cc1 (some centres unmarked) [Compound I-6]
- Total effective drug amount in the liver, compared with OCA ([3]; rats, gavage, same molar dosage as OCA): significantly increased
- In vivo active compounds in the rats after administration [1]: Compound 4

SMILES: CC[C@H]1[C@@H](O)[C@@H]2[C@H](CC[C@]3(C)[C@@H]([C@H](C)CCC(=O)NCCS(=O)(=O)O)CC[C@@H]23)[C@@]2(C)CC[C@@H](O)C[C@@H]12 [OCA-Tau, reference compound]
- Effect on activation of the farnesoid X receptor (FXR) activity, compared with obeticholic acid [2]: almost the same as the effect of the obeticholic acid

SMILES: CC[C@@H]1C2C[C@H](O)CC[C@]2(C)[C@H]2CC[C@]3(C)[C@@H]([C@H](C)CCC(=O)NCC(=O)OCc4ccccc4)CC[C@H]3[C@@H]2[C@@H]1O (some centres unmarked) [Compound I-5]
- In vivo active compounds in the rats after administration [1]: Compound 4
- Decrease of AUC of the effective drug in the blood versus direct administration of OCA ([1]; in vivo): 84%
- Increase of total AUC of Compound 4 in liver and plasma versus Compound 4 directly administered ([1]; in vivo): 28%
- Total effective drug amount in the liver, compared with OCA ([1]; in vivo): significantly increased
- AUC ratio of the obeticholic acid-glycine conjugate 4 in liver/plasma ([1]; in vivo, po): 18.7
- Total AUC of the Compound 4 in the liver and plasma ([1]; in vivo, po): 150442
